System: SH13 H7N9 virus
Set-up: species or system mice
Details: mouse, in vivo

## poly IC
  protection from lethal SH13 H7N9 challenge: did not provide any benefit over the vaccine alone

From patent US20220362153A1, “COMPOSITIONS AND METHODS FOR PULMONARY SURFACTANT-BIOMIMETIC NANOPARTICLES” (priority 2019, published 2022)
